The NIST ThermoML archive (doi:10.1016/j.jct.2011.02.008)

Test: xn = mol fraction of the nth substance listed
Settings: Liquid, Vibrating tube method

COC(=O)c1ccccc1 [methyl benzoate] + CCCCCCO
mass density [kg/m3]
Settings | x1 = 0.1004 | x1 = 0.2007 | x1 = 0.3007 | x1 = 0.4013 | x1 = 0.5005 | x1 = 0.6009 | x1 = 0.7 | x1 = 0.8008 | x1 = 0.9009
318.15 K, 30000 kPa | 846.9 | 872.9 | 899.1 | 925.4 | 951.5 | 977.9 | 1003.9 | 1030.5 | 1056.8
318.15 K, 35000 kPa | 849.9 | 875.9 | 902.1 | 928.4 | 954.5 | 980.9 | 1006.9 | 1033.5 | 1059.8
318.15 K, 40000 kPa | 852.8 | 878.8 | 905.1 | 931.4 | 957.4 | 983.8 | 1009.8 | 1036.4 | 1062.7
318.15 K, 45000 kPa | 855.7 | 881.7 | 907.9 | 934.3 | 960.3 | 986.7 | 1012.7 | 1039.3 | 1065.6
318.15 K, 50000 kPa | 858.4 | 884.5 | 910.7 | 937.1 | 963.1 | 989.5 | 1015.5 | 1042.1 | 1068.4
318.15 K, 55000 kPa | 861.1 | 887.2 | 913.4 | 939.8 | 965.8 | 992.2 | 1018.2 | 1044.6 | 1071.1
318.15 K, 60000 kPa | 863.6 | 889.6 | 915.9 | 942.3 | 968.3 | 994.9 | 1020.7 | 1047.2 | 1073.6
328.15 K, 100 kPa | 818.7 | 844.4 | 870.4 | 896.7 | 922.5 | 948.8 | 974.9 | 1001.4 | 1027.8
328.15 K, 1000 kPa | 819.4 | 845.1 | 871.1 | 897.4 | 923.2 | 949.5 | 975.6 | 1002.1 | 1028.5
328.15 K, 5000 kPa | 822.6 | 848.3 | 874.3 | 900.5 | 926 | 952.6 | 978.6 | 1005.1 | 1031.5
328.15 K, 10000 kPa | 826.4 | 852.1 | 878.1 | 904.3 | 930.1 | 956.3 | 982.2 | 1008.7 | 1035.1
328.15 K, 15000 kPa | 830 | 855.7 | 881.7 | 907.8 | 933.7 | 959.9 | 985.8 | 1012.3 | 1038.6
328.15 K, 20000 kPa | 833.5 | 859.2 | 885.2 | 911.3 | 937.2 | 963.3 | 989.2 | 1015.7 | 1042
328.15 K, 25000 kPa | 836.9 | 862.6 | 888.6 | 914.6 | 940.5 | 966.6 | 992.5 | 1019 | 1045.3
328.15 K, 30000 kPa | 840.1 | 865.8 | 891.8 | 917.9 | 943.7 | 969.9 | 995.7 | 1022.2 | 1048.5
328.15 K, 35000 kPa | 843.3 | 869 | 895 | 921.1 | 946.9 | 973 | – | – | –
